Laboratory results: ChEMBL document CHEMBL4507275, “Data for DCP probe BI-2545” (2021)

What was measured:
[1] = molecular target: Casein kinase I isoform gamma-1 (Homo sapiens) (UniProt Q9HCP0); conditions: Compound concentration 1000.0 nM
[2] = molecular target: Dual specificity tyrosine-phosphorylation-regulated kinase 1A (Homo sapiens) (UniProt Q13627); conditions: Compound concentration 1000.0 nM
[3] = molecular target: Activin receptor type-1B (Homo sapiens) (UniProt P36896); conditions: Compound concentration 1000.0 nM
[4] = molecular target: Ribosomal protein S6 kinase alpha-6 (Homo sapiens) (UniProt Q9UK32); conditions: Compound concentration 1000.0 nM
[5] = molecular target: Calcium/calmodulin-dependent protein kinase kinase 1 (Homo sapiens) (UniProt Q8N5S9); conditions: Compound concentration 1000.0 nM
[6] = molecular target: Casein kinase I isoform alpha (Homo sapiens) (UniProt P48729); conditions: Compound concentration 1000.0 nM
[7] = molecular target: Serine/threonine-protein kinase MAK (Homo sapiens) (UniProt P20794); conditions: Compound concentration 1000.0 nM
[8] = molecular target: Tyrosine-protein kinase ABL1 (Homo sapiens) (UniProt P00519); conditions: Compound concentration 1000.0 nM
[9] = molecular target: Serine/threonine-protein kinase pim-2 (Homo sapiens) (UniProt Q9P1W9); conditions: Compound concentration 1000.0 nM
[10] = molecular target: Tyrosine-protein kinase JAK1 (Homo sapiens) (UniProt P23458); conditions: Compound concentration 1000.0 nM
[11] = molecular target: Ribosomal protein S6 kinase beta-1 (Homo sapiens) (UniProt P23443); conditions: Compound concentration 1000.0 nM
[12] = molecular target: Receptor tyrosine-protein kinase erbB-4 (Homo sapiens) (UniProt Q15303); conditions: Compound concentration 1000.0 nM
[13] = molecular target: Tyrosine-protein kinase ABL1 (Homo sapiens) (UniProt P00519); conditions: Compound concentration 1000.0 nM; remark: listed apart in the source
[14] = molecular target: Serine/threonine-protein kinase 26 (Homo sapiens) (UniProt Q9P289); conditions: Compound concentration 1000.0 nM
[15] = molecular target: SNF-related serine/threonine-protein kinase (Homo sapiens) (UniProt Q9NRH2); conditions: Compound concentration 1000.0 nM
[16] = molecular target: Serine/threonine-protein kinase 36 (Homo sapiens) (UniProt Q9NRP7); conditions: Compound concentration 1000.0 nM
[17] = molecular target: Platelet-derived growth factor receptor beta (Homo sapiens) (UniProt P09619); conditions: Compound concentration 1000.0 nM
[18] = molecular target: T1, Alpha-2A adrenergic receptor (Homo sapiens) (UniProt P08913); conditions: Compound concentration 10.0 uM
T1 sequence (whole entry): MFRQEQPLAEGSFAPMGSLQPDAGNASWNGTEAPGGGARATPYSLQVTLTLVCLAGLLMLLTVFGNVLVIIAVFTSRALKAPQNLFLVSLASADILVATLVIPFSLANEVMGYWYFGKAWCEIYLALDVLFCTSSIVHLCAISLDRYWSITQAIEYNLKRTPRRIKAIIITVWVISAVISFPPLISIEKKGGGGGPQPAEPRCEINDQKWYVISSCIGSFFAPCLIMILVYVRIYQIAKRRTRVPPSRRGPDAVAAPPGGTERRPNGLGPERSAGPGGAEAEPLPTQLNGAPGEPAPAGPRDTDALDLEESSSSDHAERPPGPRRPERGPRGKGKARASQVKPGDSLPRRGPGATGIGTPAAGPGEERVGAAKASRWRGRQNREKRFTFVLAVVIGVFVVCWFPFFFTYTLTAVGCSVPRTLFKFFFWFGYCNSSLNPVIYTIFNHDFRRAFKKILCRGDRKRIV

[19] = molecular target: Receptor-interacting serine/threonine-protein kinase 4 (Homo sapiens) (UniProt P57078); conditions: Compound concentration 1000.0 nM
[20] = molecular target: Receptor tyrosine-protein kinase erbB-3 (Homo sapiens) (UniProt P21860); conditions: Compound concentration 1000.0 nM
[21] = molecular target: Death-associated protein kinase 2 (Homo sapiens) (UniProt Q9UIK4); conditions: Compound concentration 1000.0 nM
[22] = molecular target: Casein kinase II subunit alpha' (Homo sapiens) (UniProt P19784); conditions: Compound concentration 1000.0 nM
[23] = molecular target: Inhibitor of nuclear factor kappa-B kinase subunit epsilon (Homo sapiens) (UniProt Q14164); conditions: Compound concentration 1000.0 nM
[24] = test system: Tyrosine-protein kinase ABL1 (Homo sapiens), P00519 [F317L]; conditions: Compound concentration 1000.0 nM
[25] = molecular target: Serine/threonine-protein kinase PAK 5 (Homo sapiens) (UniProt Q9P286); conditions: Compound concentration 1000.0 nM
[26] = molecular target: Serine/threonine-protein kinase pim-1 (Homo sapiens) (UniProt P11309); conditions: Compound concentration 1000.0 nM
[27] = test system: Tyrosine-protein kinase ABL1 (Homo sapiens), P00519 [Q252H]; conditions: Compound concentration 1000.0 nM
[28] = molecular target: Myosin-IIIb (Homo sapiens) (UniProt Q8WXR4); conditions: Compound concentration 1000.0 nM
[29] = molecular target: Tyrosine-protein kinase Yes (Homo sapiens) (UniProt P07947); conditions: Compound concentration 1000.0 nM
[30] = molecular target: Hepatocyte growth factor receptor (Homo sapiens) (UniProt P08581); conditions: Compound concentration 1000.0 nM
[31] = molecular target: Cyclin-G-associated kinase (Homo sapiens) (UniProt O14976); conditions: Compound concentration 1000.0 nM
[32] = test system: Proto-oncogene tyrosine-protein kinase receptor Ret (Homo sapiens), P07949 [V804M]; conditions: Compound concentration 1000.0 nM
[33] = molecular target: Glycogen synthase kinase-3 alpha (Homo sapiens) (UniProt P49840); conditions: Compound concentration 1000.0 nM
[34] = molecular target: Histamine H2 receptor (Homo sapiens) (UniProt P25021); conditions: Compound concentration 10.0 uM
[35] = molecular target: Ephrin type-A receptor 6 (Homo sapiens) (UniProt Q9UF33); conditions: Compound concentration 1000.0 nM
[36] = test system: Tyrosine-protein kinase ABL1 (Homo sapiens), P00519 [F317L]; conditions: Compound concentration 1000.0 nM; remark: listed apart in the source
[37] = molecular target: Serine/threonine-protein kinase tousled-like 2 (Homo sapiens) (UniProt Q86UE8); conditions: Compound concentration 1000.0 nM
[38] = molecular target: cAMP-dependent protein kinase catalytic subunit alpha (Homo sapiens) (UniProt P17612); conditions: Compound concentration 1000.0 nM
[39] = molecular target: Serine/threonine-protein kinase TAO2 (Homo sapiens) (UniProt Q9UL54); conditions: Compound concentration 1000.0 nM
Sequence of Serine/threonine-protein kinase TAO2 (Homo sapiens) (Q9UL54 whole entry): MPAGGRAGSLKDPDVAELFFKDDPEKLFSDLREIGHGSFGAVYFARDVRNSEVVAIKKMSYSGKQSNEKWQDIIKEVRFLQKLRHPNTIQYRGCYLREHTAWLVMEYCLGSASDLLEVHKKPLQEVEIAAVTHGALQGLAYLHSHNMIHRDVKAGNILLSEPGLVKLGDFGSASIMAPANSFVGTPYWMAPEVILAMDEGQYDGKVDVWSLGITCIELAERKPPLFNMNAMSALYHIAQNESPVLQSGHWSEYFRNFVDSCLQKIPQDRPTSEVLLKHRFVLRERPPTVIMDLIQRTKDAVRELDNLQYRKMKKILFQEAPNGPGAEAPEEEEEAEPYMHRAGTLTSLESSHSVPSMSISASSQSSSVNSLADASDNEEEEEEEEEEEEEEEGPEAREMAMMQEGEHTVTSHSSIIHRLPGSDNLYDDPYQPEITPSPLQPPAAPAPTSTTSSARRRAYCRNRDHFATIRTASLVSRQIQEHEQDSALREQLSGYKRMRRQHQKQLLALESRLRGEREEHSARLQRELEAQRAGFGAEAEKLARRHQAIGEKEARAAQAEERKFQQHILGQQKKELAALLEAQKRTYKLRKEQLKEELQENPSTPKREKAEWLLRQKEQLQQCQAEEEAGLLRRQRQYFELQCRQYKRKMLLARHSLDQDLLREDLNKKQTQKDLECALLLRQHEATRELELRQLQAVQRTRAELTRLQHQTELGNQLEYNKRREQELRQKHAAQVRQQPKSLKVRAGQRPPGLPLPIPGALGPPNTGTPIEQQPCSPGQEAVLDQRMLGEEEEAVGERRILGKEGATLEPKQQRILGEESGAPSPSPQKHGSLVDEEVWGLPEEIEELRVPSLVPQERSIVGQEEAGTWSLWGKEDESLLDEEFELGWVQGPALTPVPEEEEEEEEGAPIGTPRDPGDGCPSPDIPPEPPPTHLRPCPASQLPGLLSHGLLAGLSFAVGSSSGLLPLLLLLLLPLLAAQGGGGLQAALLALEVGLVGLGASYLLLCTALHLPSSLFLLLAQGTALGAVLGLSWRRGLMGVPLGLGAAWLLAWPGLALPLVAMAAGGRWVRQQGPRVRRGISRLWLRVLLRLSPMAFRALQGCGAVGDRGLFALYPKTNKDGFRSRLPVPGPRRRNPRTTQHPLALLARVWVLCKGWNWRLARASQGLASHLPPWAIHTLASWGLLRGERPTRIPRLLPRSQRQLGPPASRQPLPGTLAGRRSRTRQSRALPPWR

Sequence of Myosin-IIIb (Homo sapiens) (Q8WXR4 whole entry): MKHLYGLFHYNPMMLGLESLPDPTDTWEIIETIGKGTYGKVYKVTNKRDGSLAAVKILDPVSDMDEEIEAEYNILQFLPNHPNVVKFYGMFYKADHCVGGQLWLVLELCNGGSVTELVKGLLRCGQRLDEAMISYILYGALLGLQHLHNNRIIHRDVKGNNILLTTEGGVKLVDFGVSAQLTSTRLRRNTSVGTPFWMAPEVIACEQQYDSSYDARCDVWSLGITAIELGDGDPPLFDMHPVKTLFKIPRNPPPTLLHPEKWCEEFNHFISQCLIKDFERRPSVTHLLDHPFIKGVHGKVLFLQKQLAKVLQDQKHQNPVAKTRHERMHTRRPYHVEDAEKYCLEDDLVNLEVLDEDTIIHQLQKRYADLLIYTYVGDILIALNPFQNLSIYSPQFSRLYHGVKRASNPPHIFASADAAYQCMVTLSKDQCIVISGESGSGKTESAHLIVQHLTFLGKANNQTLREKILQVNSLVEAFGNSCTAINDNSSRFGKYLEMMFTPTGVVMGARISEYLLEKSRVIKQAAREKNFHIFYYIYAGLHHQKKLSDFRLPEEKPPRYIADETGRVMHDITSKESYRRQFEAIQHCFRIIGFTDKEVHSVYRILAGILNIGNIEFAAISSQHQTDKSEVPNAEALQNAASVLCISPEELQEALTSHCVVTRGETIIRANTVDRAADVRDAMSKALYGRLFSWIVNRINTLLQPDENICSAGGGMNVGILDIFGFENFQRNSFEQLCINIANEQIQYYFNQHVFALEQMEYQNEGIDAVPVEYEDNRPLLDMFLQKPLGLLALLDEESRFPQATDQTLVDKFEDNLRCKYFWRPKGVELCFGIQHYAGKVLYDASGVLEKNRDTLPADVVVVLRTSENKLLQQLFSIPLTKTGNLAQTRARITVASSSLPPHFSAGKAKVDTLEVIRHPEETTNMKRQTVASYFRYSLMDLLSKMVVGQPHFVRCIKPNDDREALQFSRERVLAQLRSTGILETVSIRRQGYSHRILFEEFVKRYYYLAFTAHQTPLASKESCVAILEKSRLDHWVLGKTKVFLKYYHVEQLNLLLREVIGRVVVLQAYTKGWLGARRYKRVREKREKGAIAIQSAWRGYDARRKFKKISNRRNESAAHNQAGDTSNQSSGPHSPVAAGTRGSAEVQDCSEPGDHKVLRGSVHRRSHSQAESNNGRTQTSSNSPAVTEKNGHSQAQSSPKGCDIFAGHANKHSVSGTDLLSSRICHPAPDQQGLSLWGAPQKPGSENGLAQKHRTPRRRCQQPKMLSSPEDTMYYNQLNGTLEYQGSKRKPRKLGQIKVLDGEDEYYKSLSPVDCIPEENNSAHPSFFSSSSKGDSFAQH
Sequence of Serine/threonine-protein kinase pim-1 (Homo sapiens) (P11309 whole entry, looked up): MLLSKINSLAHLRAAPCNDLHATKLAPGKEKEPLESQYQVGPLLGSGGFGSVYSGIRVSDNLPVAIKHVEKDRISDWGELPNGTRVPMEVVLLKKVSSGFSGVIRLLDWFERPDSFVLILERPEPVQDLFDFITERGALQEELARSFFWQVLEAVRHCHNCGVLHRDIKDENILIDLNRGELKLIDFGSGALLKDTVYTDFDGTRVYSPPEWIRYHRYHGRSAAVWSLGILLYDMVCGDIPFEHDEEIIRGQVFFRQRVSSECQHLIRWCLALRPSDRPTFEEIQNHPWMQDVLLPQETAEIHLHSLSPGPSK
Sequence of Proto-oncogene tyrosine-protein kinase receptor Ret (Homo sapiens), P07949 [V804M] (P07949 whole entry V804M): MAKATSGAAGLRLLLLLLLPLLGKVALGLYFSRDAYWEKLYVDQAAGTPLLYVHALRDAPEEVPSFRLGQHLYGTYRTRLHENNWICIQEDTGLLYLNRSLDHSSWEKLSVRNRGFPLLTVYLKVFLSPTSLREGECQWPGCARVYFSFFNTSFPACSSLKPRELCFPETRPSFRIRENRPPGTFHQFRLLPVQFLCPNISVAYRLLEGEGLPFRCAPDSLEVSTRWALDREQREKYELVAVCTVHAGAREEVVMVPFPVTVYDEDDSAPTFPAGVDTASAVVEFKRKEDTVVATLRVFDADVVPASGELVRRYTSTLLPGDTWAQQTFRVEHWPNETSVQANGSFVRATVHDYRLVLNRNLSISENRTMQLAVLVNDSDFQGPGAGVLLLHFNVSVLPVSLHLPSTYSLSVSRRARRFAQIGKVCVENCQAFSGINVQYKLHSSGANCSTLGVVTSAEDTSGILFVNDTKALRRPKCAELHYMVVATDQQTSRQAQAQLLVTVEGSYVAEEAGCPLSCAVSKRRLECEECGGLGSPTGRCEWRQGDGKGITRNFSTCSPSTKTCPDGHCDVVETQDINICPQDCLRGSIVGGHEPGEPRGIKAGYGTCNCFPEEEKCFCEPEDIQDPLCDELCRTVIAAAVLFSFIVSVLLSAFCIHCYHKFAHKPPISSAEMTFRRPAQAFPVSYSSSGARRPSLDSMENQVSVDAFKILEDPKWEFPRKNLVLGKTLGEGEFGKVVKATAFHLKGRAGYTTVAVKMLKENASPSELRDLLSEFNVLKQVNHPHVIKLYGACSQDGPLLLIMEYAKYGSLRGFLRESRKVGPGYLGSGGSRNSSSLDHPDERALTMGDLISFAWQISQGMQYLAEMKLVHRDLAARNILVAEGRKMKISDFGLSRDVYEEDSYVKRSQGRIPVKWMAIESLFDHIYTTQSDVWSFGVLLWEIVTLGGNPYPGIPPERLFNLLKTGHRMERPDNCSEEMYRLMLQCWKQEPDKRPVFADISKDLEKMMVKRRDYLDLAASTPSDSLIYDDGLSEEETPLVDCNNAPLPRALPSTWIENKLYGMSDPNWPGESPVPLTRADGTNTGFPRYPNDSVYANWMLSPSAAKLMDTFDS
Sequence of Glycogen synthase kinase-3 alpha (Homo sapiens) (P49840 2-483 limits assumed): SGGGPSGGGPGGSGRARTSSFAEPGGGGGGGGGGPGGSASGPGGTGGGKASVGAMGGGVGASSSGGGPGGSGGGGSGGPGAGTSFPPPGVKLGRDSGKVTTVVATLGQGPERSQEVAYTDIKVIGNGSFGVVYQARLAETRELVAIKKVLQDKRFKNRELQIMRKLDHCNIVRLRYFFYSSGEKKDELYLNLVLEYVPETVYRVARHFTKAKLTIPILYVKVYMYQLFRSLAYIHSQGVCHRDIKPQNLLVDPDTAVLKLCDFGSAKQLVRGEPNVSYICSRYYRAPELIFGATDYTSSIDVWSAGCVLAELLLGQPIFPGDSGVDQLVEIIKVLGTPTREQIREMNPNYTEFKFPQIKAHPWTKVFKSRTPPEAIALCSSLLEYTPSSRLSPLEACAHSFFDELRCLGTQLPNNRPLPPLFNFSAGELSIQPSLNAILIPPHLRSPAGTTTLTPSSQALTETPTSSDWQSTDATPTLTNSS
Sequence of Serine/threonine-protein kinase pim-2 (Homo sapiens) (Q9P1W9 whole entry, looked up): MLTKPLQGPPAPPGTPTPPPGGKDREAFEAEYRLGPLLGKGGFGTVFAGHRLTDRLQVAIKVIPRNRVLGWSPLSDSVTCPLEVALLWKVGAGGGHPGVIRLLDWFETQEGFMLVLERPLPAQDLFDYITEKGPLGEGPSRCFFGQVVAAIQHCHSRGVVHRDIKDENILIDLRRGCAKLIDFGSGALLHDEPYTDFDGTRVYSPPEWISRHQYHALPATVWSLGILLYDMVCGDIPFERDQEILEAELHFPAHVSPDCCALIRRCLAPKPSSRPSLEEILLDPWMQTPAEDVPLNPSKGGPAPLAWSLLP

Compound	residual activity [1]	residual activity [2]	residual activity [3]	residual activity [4]	residual activity [5]	residual activity [6]	residual activity [7]	residual activity [8]	residual activity [9]	residual activity [10]	residual activity [11]	residual activity [12]	residual activity [13]	residual activity [14]	residual activity [15]	residual activity [16]	residual activity [17]	inhibition [18]	residual activity [19]	residual activity [20]	further results
O=C(NC[C@@H]1[C@H]2CN(C(=O)OCc3cc(C(F)(F)F)cc(C(F)(F)F)c3)C[C@@H]12)c1ccc2[nH]nnc2c1 [BI 2545]	97%	86%	100%	86%	91%	100%	100%	87%	100%	89%	86%	100%	100%	76%	77%	100%	90%	14.3%	100%	96%	residual activity [21]: 85%; residual activity [22]: 92%; residual activity [23]: 100%; residual activity [24]: 91%; residual activity [25]: 100%; residual activity [26]: 98%; residual activity [27]: 78%; residual activity [28]: 100%; residual activity [29]: 100%; residual activity [30]: 100%; residual activity [31]: 91%; residual activity [32]: 88%; residual activity [33]: 99%; inhibition [34]: 28.1%; residual activity [35]: 69%; residual activity [36]: 88%; residual activity [37]: 90%; residual activity [38]: 100%; residual activity [39]: 86%
Cc1nccc(COC(=O)N2C[C@@H]3[C@@H](CNC(=O)c4ccc5[nH]nnc5c4)[C@@H]3C2)n1 [BI 3017]	100%	81%	92%	95%	100%	86%	98%	91%	0%	92%	84%	100%	95%	77%	98%	92%	84%	2.2%	98%	59%	residual activity [21]: 82%; residual activity [22]: 85%; residual activity [23]: 100%; residual activity [24]: 70%; residual activity [25]: 92%; residual activity [26]: 96%; residual activity [27]: 100%; residual activity [28]: 100%; residual activity [29]: 100%; residual activity [30]: 94%; residual activity [31]: 100%; residual activity [32]: 100%; residual activity [33]: 82%; inhibition [34]: -0.15%; residual activity [35]: 98%; residual activity [36]: 90%; residual activity [37]: 100%; residual activity [38]: 88%; residual activity [39]: 91%
